Experimental data from the NIST ThermoML archive (doi:10.1021/je034223r).
Numbers after ± are expanded uncertainties.

How the values were obtained:
[1] = heat capacity at constant pressure per volume; xn = mol fraction of the nth substance listed; details: 298.15 K, 101.3 kPa, Liquid, Flow calorimetry
[2] = excess molar enthalpy (molar enthalpy of mixing); xn = mol fraction of the nth substance listed; details: 298.15 K, 101.3 kPa, Liquid, Flow calorimetry
[3] = xn = mol fraction of the nth substance listed; details: 298.15 K, 101.3 kPa, Liquid, vibrating tube
[4] = refractive index (Na D-line) (dimensionless); xn = mol fraction of the nth substance listed; details: 298.15 K, 101.3 kPa, Liquid, refractometer
[5] = 298.15 K; 101.33 kPa; Liquid; Vibrating tube method
[6] = molar heat capacity at constant pressure; details: 298.15 K; 101.33 kPa; Liquid; Flow calorimetry
[7] = refractive index (Na D-line) (dimensionless); details: 298.15 K; 101.33 kPa; Liquid; Standard Abbe refractometry

CCCCCC(C)=O [2-heptanone] + C1COCO1
Details	excess molar enthalpy [kcal/mol]	heat capacity [J/K/m3]	mass density [kg/m3]	refractive index
[1], x2 = 0.0872	–	1721500 ± 2700	–	–
[1], x2 = 0.1656	–	1720700 ± 2700	–	–
[1], x2 = 0.2372	–	1720000 ± 2700	–	–
[1], x2 = 0.3167	–	1719700 ± 2700	–	–
[1], x2 = 0.3868	–	1719900 ± 2700	–	–
[1], x2 = 0.4649	–	1720200 ± 2700	–	–
[1], x2 = 0.541	–	1721000 ± 2700	–	–
[1], x2 = 0.6252	–	1722500 ± 2700	–	–
[1], x2 = 0.6995	–	1724400 ± 2700	–	–
[1], x2 = 0.7807	–	1726700 ± 2700	–	–
[1], x2 = 0.8584	–	1729700 ± 2700	–	–
[2], x2 = 0.1	0.028 ± 0.000478	–	–	–
[2], x2 = 0.15	0.041 ± 0.000574	–	–	–
[2], x2 = 0.2	0.0538 ± 0.000669	–	–	–
[2], x2 = 0.25	0.0658 ± 0.000741	–	–	–
[2], x2 = 0.3	0.0764 ± 0.000837	–	–	–
[2], x2 = 0.35	0.0857 ± 0.000908	–	–	–
[2], x2 = 0.4	0.0936 ± 0.000956	–	–	–
[2], x2 = 0.45	0.0993 ± 0.001	–	–	–
[2], x2 = 0.5	0.1031 ± 0.00103	–	–	–
[2], x2 = 0.55	0.105 ± 0.00105	–	–	–
[2], x2 = 0.6	0.104 ± 0.00105	–	–	–
[2], x2 = 0.65	0.102 ± 0.00103	–	–	–
[2], x2 = 0.7	0.0972 ± 0.001	–	–	–
[2], x2 = 0.75	0.0894 ± 0.000932	–	–	–
[2], x2 = 0.8	0.0793 ± 0.00086	–	–	–
[2], x2 = 0.85	0.066 ± 0.000789	–	–	–
[2], x2 = 0.9	0.0486 ± 0.000669	–	–	–
[3], x2 = 0.1058	–	–	824.42 ± 0.8	–
[3], x2 = 0.1274	–	–	827.37 ± 0.79	–
[3], x2 = 0.244	–	–	844.52 ± 0.76	–
[3], x2 = 0.3122	–	–	855.72 ± 0.74	–
[3], x2 = 0.3693	–	–	865.84 ± 0.72	–
[3], x2 = 0.3985	–	–	871.31 ± 0.71	–
[3], x2 = 0.4258	–	–	876.6 ± 0.7	–
[3], x2 = 0.4304	–	–	877.56 ± 0.7	–
[3], x2 = 0.4313	–	–	877.69 ± 0.7	–
[3], x2 = 0.4768	–	–	887.06 ± 0.69	–
[3], x2 = 0.5071	–	–	893.63 ± 0.68	–
[3], x2 = 0.5125	–	–	894.83 ± 0.68	–
[3], x2 = 0.5141	–	–	895.15 ± 0.68	–
[3], x2 = 0.536	–	–	900.1 ± 0.67	–
[3], x2 = 0.5433	–	–	901.8 ± 0.67	–
[3], x2 = 0.5928	–	–	913.69 ± 0.66	–
[3], x2 = 0.6302	–	–	923.33 ± 0.65	–
[3], x2 = 0.6308	–	–	923.51 ± 0.64	–
[3], x2 = 0.667	–	–	933.32 ± 0.63	–
[3], x2 = 0.7125	–	–	946.48 ± 0.62	–
[3], x2 = 0.785	–	–	969.65 ± 0.6	–
[3], x2 = 0.8627	–	–	997.8 ± 0.58	–
[3], x2 = 0.9533	–	–	1036.16 ± 0.55	–
[4], x2 = 0.0796	–	–	–	1.4064 ± 0.00039
[4], x2 = 0.1592	–	–	–	1.40592 ± 0.00037
[4], x2 = 0.2381	–	–	–	1.40542 ± 0.00036
[4], x2 = 0.315	–	–	–	1.40489 ± 0.00034
[4], x2 = 0.3582	–	–	–	1.40459 ± 0.00033
[4], x2 = 0.3981	–	–	–	1.4043 ± 0.00033
[4], x2 = 0.437	–	–	–	1.404 ± 0.00032
[4], x2 = 0.4767	–	–	–	1.4037 ± 0.00031
[4], x2 = 0.5147	–	–	–	1.4034 ± 0.0003
[4], x2 = 0.5562	–	–	–	1.40305 ± 0.00029
[4], x2 = 0.5892	–	–	–	1.40276 ± 0.00029
[4], x2 = 0.6363	–	–	–	1.40234 ± 0.00028
[4], x2 = 0.6694	–	–	–	1.40202 ± 0.00027
[4], x2 = 0.7034	–	–	–	1.40169 ± 0.00027
[4], x2 = 0.7886	–	–	–	1.40078 ± 0.00025
[4], x2 = 0.8717	–	–	–	1.39979 ± 0.00023
[4], x2 = 0.9502	–	–	–	1.39873 ± 0.00022

C1COCO1 [1,3-dioxolane]
Details	mass density [kg/m3]	molar heat capacity at constant pressure [J/K/mol]	refractive index
[5]	1058.67 ± 0.54	–	–
[6]	–	121.66 ± 0.25	–
[7]	–	–	1.39797 ± 0.00075
